± gives the expanded uncertainty stated by the source.
Conditions: Liquid, Ebulliometric method (Recirculating still)

SMILES | vapor or sublimation pressure (288.15 K) [kPa] | vapor or sublimation pressure (298.15 K) [kPa] | vapor or sublimation pressure (308.15 K) [kPa]
CC(C)CCl [1-chloro-2-methylpropane] | 13 ± 0.1 | 20.35 ± 0.1 | 30.45 ± 0.11
CCCCCl [1-chlorobutane] | 8.4 ± 0.1 | 13.52 ± 0.1 | 21.04 ± 0.1
CCC(C)Cl (stereo not given) [2-chlorobutane] | 13.36 ± 0.1 | 20.91 ± 0.1 | 31.55 ± 0.11

Second part, the molecule after the results:

vapor or sublimation pressure (288.15 K) [kPa] | vapor or sublimation pressure (298.15 K) [kPa] | vapor or sublimation pressure (308.15 K) [kPa] | SMILES
3.63 ± 0.1 | 6.095 ± 0.1 | 9.865 ± 0.1 | CCCCCCC [heptane]
26.42 ± 0.11 | 40.13 ± 0.11 | 59.52 ± 0.12 | CC(C)(C)Cl [2-chloro-2-methylpropane]
